# Assay results reported in patent US10336739B2, “4-hydroxy-3-(heteroaryl)pyridine-2-one APJ agonists” (BRISTOL-MYERS SQUIBB COMPANY, priority 2015, dated 2019).
# Target: human APJ receptor (Homo sapiens (Human), UniProt P35414)
# Experiment: Intracellular cAMP accumulation assay (APJ hcAMP, HTRF)
# Type: cell-based
# Conditions: HEK293 cells stably expressing human APJ receptor; inhibition of forskolin-mediated cAMP production; read-out: Human APJ cAMP EC50 Potency range
# Protocol: Intracellular cAMP Accumulation Assay
# HEK293 cells stably expressing human APJ receptor were used to assess the activity of compounds. Cultured cells were detached and resuspended in the cAMP Homogeneous Time-Resolved Fluorescence (HTRF) assay buffer (Cisbio cat; #62AM4PEJ). The assay was performed in 384-well assay plates (Perkin-Elmer; cat #6008289) according to assay protocol provided by the manufacturer. Serial dilutions of a compound together with assay buffer containing […] and 2 μM forskolin were added to each well containing 5,000 cells and incubated for 30 minutes at room temperature. Subsequently, cAMP D2 reagent was added in the lysis buffer followed by the EuK antibody (Cisbio; cat #62AM4PEJ) and incubated for 60 min. The fluorescence emission ratio was measured using fluorometer. The intracellular cAMP concentrations (compound-stimulated inhibition of forskolin-mediated cAMP production) were calculated by extrapolation from a standard curve using known cAMP concentrations. The EC50 values were obtained by fitting the data to a sigmoidal concentration-response curve with variable slope.
# Chain of human APJ receptor (P35414 whole entry): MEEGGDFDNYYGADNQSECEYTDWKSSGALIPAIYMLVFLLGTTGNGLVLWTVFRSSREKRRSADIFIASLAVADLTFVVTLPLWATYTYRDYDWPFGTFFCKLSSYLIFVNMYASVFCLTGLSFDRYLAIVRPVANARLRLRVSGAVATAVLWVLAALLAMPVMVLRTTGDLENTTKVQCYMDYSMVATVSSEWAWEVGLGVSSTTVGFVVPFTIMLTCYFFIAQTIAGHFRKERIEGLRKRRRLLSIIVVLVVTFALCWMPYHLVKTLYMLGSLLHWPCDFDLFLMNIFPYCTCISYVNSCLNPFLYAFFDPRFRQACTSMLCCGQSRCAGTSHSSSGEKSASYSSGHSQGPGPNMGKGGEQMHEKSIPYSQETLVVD
row,EC50,Structure (SMILES)
1,10 to 100 nM,"CCCCc1nc(O)c(-c2nnc(Cc3ccc(Cl)cc3)o2)c(O)c1-c1c(OC)ccc(F)c1OC (single isomer, unassigned) [Example 218, 6-butyl-3-{5-[(4-chlorophenyl)methyl]-1,3,4-oxadiazol-2-yl}-5-(3-fluoro-2,6-dimethoxyphenyl)pyridine-2,4-diol]"
2,0.01 to 10 nM,"CCCCc1nc(O)c(-c2nnc(Cc3ccc(Cl)cc3)o2)c(O)c1-c1c(OC)ccc(F)c1OC (single isomer, unassigned) [Example 219, 6-butyl-3-{5-[(4-chlorophenyl)methyl]-1,3,4-oxadiazol-2-yl}-5-(3-fluoro-2,6-dimethoxyphenyl)pyridine-2,4-diol]"
3,0.01 to 10 nM,"CCOCc1nc(O)c(-c2nnc(Cc3ccc(Cl)cc3)o2)c(O)c1-c1c(O)cccc1OC (single isomer, unassigned) [Example 222, 3-{5-[(4-chlorophenyl)methyl]-1,3,4-oxadiazol-2-yl}-6-(ethoxymethyl)-5-(2-hydroxy-6-methoxyphenyl)pyridine-2,4-diol]"
4,10 to 100 nM,"CCOCc1nc(O)c(-c2nnc(Cc3ccc(Cl)cc3)o2)c(O)c1-c1c(O)cccc1OC (single isomer, unassigned) [Example 223, 3-{5-[(4-chlorophenyl)methyl]-1,3,4-oxadiazol-2-yl}-6-(ethoxymethyl)-5-(2-hydroxy-6-methoxyphenyl)pyridine-2,4-diol]"

# Same assay, conditions: HEK293 cells stably expressing human APJ receptor; inhibition of forskolin-mediated cAMP production; read-out: hAPJ cAMP EC50 Potency range
row,Structure (SMILES),EC50
1,"CCCCc1nc(O)c(-c2nnc(Cc3ccccc3)o2)c(O)c1-c1c(OC)cc(C)cc1OC [Example 2, 3-(5-benzyl-1,3,4-oxadiazol-2-yl)-6-butyl-5-(2,6-dimethoxy-4-methylphenyl) pyridine-2,4-diol]",100 to 300 nM
2,"CCCCc1nc(O)c(-c2nnc(Cc3ccncc3)o2)c(O)c1-c1c(OC)cccc1OC [Example 3, 6-butyl-5-(2,6-dimethoxyphenyl)-3-[5-(pyridin-4-ylmethyl)-1,3,4-oxadiazol-2-yl]pyridine-2,4-diol]",10 to 100 nM
3,"CCCCc1nc(O)c(-c2nnc(CCc3ccccc3)o2)c(O)c1-c1c(OC)cccc1OC [Example 4, 6-butyl-5-(2,6-dimethoxyphenyl)-3-[5-(2-phenylethyl)-1,3,4-oxadiazol-2-yl]pyridine-2,4-diol]",10 to 100 nM
4,"CCCCc1nc(O)c(-c2nnc(Cc3ccccc3Cl)o2)c(O)c1-c1c(OC)cccc1OC [Example 5, 6-butyl-3-{5-[(2-chlorophenyl)methyl]-1,3,4-oxadiazol-2-yl}-5-(2,6-dimethoxyphenyl) pyridine-2,4-diol]",10 to 100 nM
5,"CCCCc1nc(O)c(-c2nnc(Cc3ccccc3OC)o2)c(O)c1-c1c(OC)cccc1OC [Example 6, 6-butyl-5-(2,6-dimethoxyphenyl)-3-{5-[(2-methoxyphenyl)methyl]-1,3,4-oxadiazol-2-yl}pyridine-2,4-diol]",10 to 100 nM
6,"CCCCc1nc(O)c(-c2nnc(Cc3cccc(OC)c3)o2)c(O)c1-c1c(OC)cccc1OC [Example 7, 6-butyl-5-(2,6-dimethoxyphenyl)-3-{5-[(3-methoxyphenyl)methyl]-1,3,4-oxadiazol-2-yl}pyridine-2,4-diol]",0.01 to 10 nM
7,"CCCCc1nc(O)c(-c2nnc(Cc3ccc(Cl)cc3)o2)c(O)c1-c1c(OC)cccc1OC [Example 8, 6-butyl-3-{5-[(4-chlorophenyl)methyl]-1,3,4-oxadiazol-2-yl}-5-(2,6-dimethoxyphenyl) pyridine-2,4-diol]",0.01 to 10 nM
8,"CCCCc1nc(O)c(-c2nnc(Cc3ccc(OC)cc3)o2)c(O)c1-c1c(OC)cccc1OC [Example 9, 6-butyl-5-(2,6-dimethoxyphenyl)-3-{5-[(4-methoxyphenyl)methyl]-1,3,4-oxadiazol-2-yl}pyridine-2,4-diol]",0.01 to 10 nM
9,"CCCCc1nc(O)c(-c2nnc(-c3cccc(Cl)c3)o2)c(O)c1-c1c(OC)cccc1OC [Example 10, 6-butyl-3-[5-(3-chlorophenyl)-1,3,4-oxadiazol-2-yl]-5-(2,6-dimethoxyphenyl) pyridine-2,4-diol]",10 to 100 nM
10,"CCCCc1nc(O)c(-c2nnc(-c3ccccc3Cl)o2)c(O)c1-c1c(OC)cccc1OC [Example 11, 6-butyl-3-[5-(2-chlorophenyl)-1,3,4-oxadiazol-2-yl]-5-(2,6-dimethoxyphenyl) pyridine-2,4-diol]",100 to 300 nM
11,"CCCCc1nc(O)c(-c2nnc(-c3cnccn3)o2)c(O)c1-c1c(OC)cccc1OC [Example 12, 6-butyl-5-(2,6-dimethoxyphenyl)-3-[5-(pyrazin-2-yl)-1,3,4-oxadiazol-2-yl]pyridine-2,4-diol]",100 to 300 nM
12,"CCCCc1nc(O)c(-c2nnc(C3(c4ccccc4)CC3)o2)c(O)c1-c1c(OC)cccc1OC [Example 13, 6-butyl-5-(2,6-dimethoxyphenyl)-3-[5-(1-phenylcyclopropyl)-1,3,4-oxadiazol-2-yl]pyridine-2,4-diol]",10 to 100 nM
13,"CCCCc1nc(O)c(-c2nnc(C3CC3)o2)c(O)c1-c1c(OC)cccc1OC [Example 14, 6-butyl-3-(5-cyclopropyl-1,3,4-oxadiazol-2-yl)-5-(2,6-dimethoxyphenyl) pyridine-2,4-diol]",100 to 300 nM

# Further lines, results first:
row,EC50,Structure (SMILES)
1,10 to 100 nM,"CCCCc1nc(O)c(-c2nnc(Cc3noc4ccccc34)o2)c(O)c1-c1c(OC)ccc(F)c1OC (single isomer, unassigned; isomer 1) [Example 220, 3-[5-(1,2-benzoxazol-3-ylmethyl)-1,3,4-oxadiazol-2-yl]-6-butyl-5-(3-fluoro-2,6-dimethoxyphenyl) pyridine-2,4-diol (isomer 1)]"
2,0.01 to 10 nM,"CCCCc1nc(O)c(-c2nnc(Cc3noc4ccccc34)o2)c(O)c1-c1c(OC)ccc(F)c1OC (single isomer, unassigned; isomer 2) [Example 221, 3-[5-(1,2-benzoxazol-3-ylmethyl)-1,3,4-oxadiazol-2-yl]-6-butyl-5-(3-fluoro-2,6-dimethoxyphenyl) pyridine-2,4-diol (isomer 2)]"
3,0.01 to 10 nM,"CCCCc1nc(O)c(-c2nnc(C(C)(C)c3ccccc3)o2)c(O)c1-c1c(OC)cccc1OC [Example 15, 6-butyl-5-(2,6-dimethoxyphenyl)-3-[5-(2-phenylpropan-2-yl)-1,3,4-oxadiazol-2-yl]pyridine-2,4-diol]"
4,10 to 100 nM,"CCCCc1nc(O)c(-c2nnc(COc3ccccc3)o2)c(O)c1-c1c(OC)cccc1OC [Example 17, 6-butyl-5-(2,6-dimethoxyphenyl)-3-[5-(phenoxymethyl)-1,3,4-oxadiazol-2-yl]pyridine-2,4-diol]"
5,10 to 100 nM,"C=CCCc1nc(O)c(-c2nnc(Cc3ccccc3)o2)c(O)c1-c1c(OC)cccc1OC [Example 18, 3-(5-benzyl-1,3,4-oxadiazol-2-yl)-6-(but-3-en-1-yl)-5-(2,6-dimethoxyphenyl) pyridine-2,4-diol]"
6,100 to 300 nM,"CCCCc1nc(O)c(-c2nnc(-c3cc(C)[nH]n3)o2)c(O)c1-c1c(OC)cccc1OC [Example 19, 6-butyl-5-(2,6-dimethoxyphenyl)-3-[5-(5-methyl-1H-pyrazol-3-yl)-1,3,4-oxadiazol-2-yl]pyridine-2,4-diol]"
7,0.01 to 10 nM,"CCCCc1nc(O)c(-c2nnc(Cc3noc4ccccc34)o2)c(O)c1-c1c(OC)cccc1OC [Example 20, 3-[5-(1,2-benzoxazol-3-ylmethyl)-1,3,4-oxadiazol-2-yl]-6-butyl-5-(2,6-dimethoxyphenyl) pyridine-2,4-diol]"
8,0.01 to 10 nM,"CCCCc1nc(O)c(-c2nnc(Cc3cnccn3)o2)c(O)c1-c1c(OC)cccc1OC [Example 21, 6-butyl-5-(2,6-dimethoxyphenyl)-3-[5-(pyrazin-2-ylmethyl)-1,3,4-oxadiazol-2-yl]pyridine-2,4-diol]"
9,10 to 100 nM,"CCCCc1nc(O)c(-c2nnc(Cc3cncnc3)o2)c(O)c1-c1c(OC)cccc1OC [Example 22, 6-butyl-5-(2,6-dimethoxyphenyl)-3-[5-(pyrimidin-5-ylmethyl)-1,3,4-oxadiazol-2-yl]pyridine-2,4-diol]"
10,0.01 to 10 nM,"CCCCc1nc(O)c(-c2nnc(Cc3cccc(Cl)c3)o2)c(O)c1-c1c(OC)cccc1OC [Example 23, 6-butyl-3-{5-[(3-chlorophenyl)methyl]-1,3,4-oxadiazol-2-yl}-5-(2,6-dimethoxyphenyl) pyridine-2,4-diol]"
11,10 to 100 nM,"CCCCc1nc(O)c(-c2nnc(C(F)(F)c3ccccc3)o2)c(O)c1-c1c(OC)cccc1OC [Example 24, 6-butyl-3-{5-[difluoro(phenyl)methyl]-1,3,4-oxadiazol-2-yl}-5-(2,6-dimethoxyphenyl) pyridine-2,4-diol]"
12,0.01 to 10 nM,"CCCCc1nc(O)c(-c2nnc(Cc3nc4ccccc4o3)o2)c(O)c1-c1c(OC)cccc1OC [Example 25, 3-[5-(1,3-benzoxazol-2-ylmethyl)-1,3,4-oxadiazol-2-yl]-6-butyl-5-(2,6-dimethoxyphenyl) pyridine-2,4-diol]"
13,0.01 to 10 nM,"CCCCc1nc(O)c(-c2nnc(Cc3noc4ccccc34)o2)c(O)c1-c1c(OC)cc(C)cc1OC [Example 26, 3-[5-(1,2-benzoxazol-3-ylmethyl)-1,3,4-oxadiazol-2-yl]-6-butyl-5-(2,6-dimethoxy-4-methylphenyl) pyridine-2,4-diol]"
14,0.01 to 10 nM,"C=CCCc1nc(O)c(-c2nnc(Cc3noc4ccccc34)o2)c(O)c1-c1c(OC)cccc1OC [Example 27, 3-[5-(1,2-benzoxazol-3-ylmethyl)-1,3,4-oxadiazol-2-yl]-6-(but-3-en-1-yl)-5-(2,6-dimethoxyphenyl) pyridine-2,4-diol]"
